{
  "source": "paper PMC7613515",
  "about": "“Reading and erasing of the phosphonium analogue of trimethyllysine by epigenetic proteins” (Communications Chemistry, 2022)",
  "key": {"[1]": {"tested_on": "KDM4AJmjC (M1–L359)", "experiment": "MALDI-TOF demethylation assay, KDM4AJmjC", "type": "biochemical, human", "details": "KDM4AJmjC 2.4 µM, peptide 5.0 µM, 1 hr, duplicates", "source_text": "To investigate whether H3KP9me3 can be demethylated by other human KDM4 subfamily members, recombinant KDM4AJmjC (M1–L359) and KDM4DJmjC (M1–L358) were produced in E. coli following an adaption of literature procedures[38],[39]. […] To test the ability of KDM3 and KDM7 subfamily representatives to demethylate H3KP9me2 or H3KP9me3, KDM3AJmjC (T515–S1317) and KDM7BJmjC (M37–N483) were produced using baculovirus/sf9 and E. coli expression systems, respectively[40],[41]. The synthesis of a histone H3 mimic peptide H3KP9me2 substrate is challenging as the tri-alkylated phosphine group is susceptible to oxidation during synthesis of the protected amino acid and during SPPS requiring oxygen-free conditions. Thus, to investigate if KDM3AJmjC or KDM7BJmjC can catalyse demethylation of H3KP9me2, an appropriate H3KP9me2 substrate was prepared in situ from H3KP9me3 using KDM4EJmjC (2.0 µM), in the presence of KDM3AJmjC (2.0 µM) or KDM7BJmjC (2.0 µM).\nA Bruker Daltonics MALDI-TOF/TOF AutoflexSpeed machine and Bruker MTP 384 target plates (polished steel BC, Part: 8280781) were used. The machine was controlled using Flex control (v. 3.4 build 135.10) and Compass for flex series (v. 1.4) software. Measurements were in the positive ion mode with the reflectron mode enabled. […] Samples were then analysed by MALDI-TOF. […]"}, "[2]": {"target": "T1, KDM4EJmjC (M1–Q337) (Homo sapiens, UniProt B2RXH2)", "T1 construct": "We chose human KDM4EJmjC (M1–Q337); made in house", "T1 sequence (B2RXH2 1-337)": "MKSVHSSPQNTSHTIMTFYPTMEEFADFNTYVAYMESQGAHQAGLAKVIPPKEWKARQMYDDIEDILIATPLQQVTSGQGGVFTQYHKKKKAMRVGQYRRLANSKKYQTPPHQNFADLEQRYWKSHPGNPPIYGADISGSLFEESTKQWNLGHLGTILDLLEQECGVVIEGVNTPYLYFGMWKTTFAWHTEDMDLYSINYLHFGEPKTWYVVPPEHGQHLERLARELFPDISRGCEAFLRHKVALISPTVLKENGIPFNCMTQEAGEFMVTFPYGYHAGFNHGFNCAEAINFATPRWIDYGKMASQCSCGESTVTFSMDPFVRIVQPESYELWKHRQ", "experiment": "NMR demethylation assay (1H, 31P), KDM4EJmjC", "type": "biochemical", "details": "KDM4EJmjC 50 µM", "protocol": "Incubations of H3_1-15KP9me3 with KDM4EJmjC were performed in Eppendorf tubes (1.5 mL). Conditions used for ^1H and ^31P NMR time-courses: H3_1-15KP9me3 (250 µM) was incubated with KDM4EJmjC (50 µM), sodium ascorbate (1.00 mM), 2OG (500 µM), and Fe(NH4)2(SO4)2 (100 µM) in HEPES-d18 buffer (50 mM, pH 7.5) in D2O ( > 95% ^2H). Reactions (160 µL total volume) were quenched by addition of HCl (1 M, 10 equivalents) after the indicated time. The samples were centrifuged (1 min, 14,500 rpm) and the supernatant transferred to an NMR tube (3 mm, Norell). For characterisation of the products from the incubation of H3_1-15KP9me3 with KDM4EJmjC the following conditions were used: Peptide H3_1-15KP9me3 (500 µM) was incubated with sodium ascorbate (1.00 mM) 2-oxoglutarate (1.00 mM), Fe(NH4)2(SO4)2 (100 µM), and KDM4EJmjC (50.0 µM), in HEPES-d18 buffer (50 mM, pH 7.5) in D2O (>95% ^2H) for 1 hour. Reactions were quenched by addition of HCl (1 M, 10 equivalents), or by heating (95 °C, 10 min). Precipitated proteins were removed by centrifugation (1 min, 14,500 rpm) and the supernatant transferred to an NMR tube (3 mm, Norell). Spectra were measured using a Bruker 600 MHz machine and analysed using MestReNova 14.1 (MestReLabs, Spain; www.mestrelab.com) and Topspin 3.6.1 (Bruker, Germany; www.bruker.com). […]"}},
  "data": [
    {"substance": "ARTKQTAR(KPme3)STGGKA [H3KP9me3, histone H3 residues 1–15 with trimethylphosphonium lysine analogue at position 9]", "values": [
      {"measurement": "demethylation", "setting": "[1]", "value": "substantial turnover to H3KP9me2"},
      {"measurement": "demethylation", "setting": "[2]; 1H and 31P NMR, H3KP9me3 250 or 500 µM, HEPES-d18 pH 7.5 in D2O", "value": "the reaction proceeded to give signals corresponding to H3KP9me2 and H3KP9me2O"},
      {"measurement": "demethylation with 2OG turnover to succinate", "setting": "[2]; NMR time-course, H3KP9me3 250 µM", "value": "confirmed demethylation and conversion of 2OG to succinate"}
    ]}
  ]
}
